Patent publication US9040671B2, “Methods for cancer management targeting Co-029” (Institut National de la Sante et de la Recherche Medicale …, priority 2010, dated 2015)

What was measured:
Is1-Co029 cells = assay: 2D cell motility on collagen I by videomicroscopy, Is1-Co029 cells; type: cell-based, human
Method: Cells and cell culture. The cell lines Isreco1, Isreco2 and Isreco3 were initially derived from a primary human colon cancer surgical specimen (Isreco1)(Duke's C, class III) and its corresponding liver and peritoneal metastases (Cajot et al., 1997). These cells were cultured in Dulbecco's modified Eagle's medium (DMEM) supplemented with 10% FCS, glutamax and antibiotics (all from Invitrogen). For experiments, tissue culture plastics were coated with rat tail Collagen I (BD Biosciences) for 1 hour at 50 μg/ml and rinsed with PBS.
Construction of the Co-029 and CD81 lentiviral vector and transduction of Isreco1 cells. Since Isreco1 cells were not efficiently transfected by using non retroviral methods we constructed the TRIPΔ3-EF1α-Co029 and TRIPΔ3-EF1α-CD81 plasmids by inserting the human Co029 and the human CD81 cDNA coding sequence in TRIPΔ3-EF1α vectors. […]. Is1-Co029 and Is1-CD81 cells were obtained by transducing Isrecol cells twice with concentrated lentiviral particles. Is1-Co029low cells were obtained following a single transduction.
Videomicroscopy. Analysis of 2D cell motility on collagen I films was performed using phase contrast on an inverted microscope (Axiovert 200; Zeiss,Oberkochen, Germany) equipped with an environmental chamber with 5% CO2 in air at 37° C. The microscope was driven by the Metamorph software (Roper Scientific),and images were recorded with a Coolsnap HQ camera (Roper Scientific). Stacks of phase contrast images were collected every 15 min for 24 h at ×200 magnification. Cell migration was quantified using the manual tracking plugin of ImageJ (Rasband, 2007) Raw data were transfered to Excel for speed calculations and statistical analysis was performed by the non parametric Mann-Whitney test in Graphpad. For each position at least 10 cells were analyzed. Experiments were repeated from 2 to 10 times to verify the robustness of the results and the stability of the measurements.
For silencing experiments, motility measures were performed 48 hours after RNAi treatments. […]

p120-catenin = assay: Flow cytometry of p120-catenin in permeabilized cells after RNA silencing; type: cell-based, human; conditions: Is1-Co029 cells on collagen I, 48 hours after silencing
Method: For intracellular cytometry, cells were detached using trypsin or scrapped in PBS (4° C.) then fixed for 20 min at 4° C. with 1% formaldehyde in PBS. After centrifugation, cells were incubated in methanol 100% for 10 min at −20° C. then washed in PBS and stained with 10 μg/ml of primary antibody. After washes in PBS, cells were incubated with 10 μg ml FITC-labelled secondary antibody (Beckman Coulter), washed again three times and immediately analysed.
(§1) RNA silencing. Cells (1-3×10^5 cells in DMEM medium) were reverse transfected with synthetic si-RNA oligonucleotides using Interferrin (Ozyme) according to manufacturer's protocol.
(§2) 6, 12 or 24 well cell culture plates were coated with rat tail collagen I. Plates were rinsed in PBS. One μl of the siRNA (10 μM) oligonucleotide mix was added to 96 μl DMEM without serum and 3-5 μl Interferrin and incubated at room temperature in each well during 20 min to allow formation of transfection complexes. Cells detached by trypsin-EDTA were layered at appropriate concentration in 400 μlDMEM medium with serum (the final concentration of si-RNA was 20 nM).

E-cadherin = assay: Flow cytometry of surface E-cadherin after RNA silencing; type: cell-based, human; conditions: Is1-Co029 cells cultured on collagen I
Method: Immunofluorescence. For flow cytometry analysis of cell surface molecules, cells were detached using a non-enzymatic solution (Invitrogen), washed and stained with 10 μg/ml of primary antibody. After washes in culture medium, cells were incubated with 10 μg/ml-1 FITC-labelled secondary antibody (Beckman Coulter), washed again three times and fixed with 1% formaldehyde in PBS. All incubations were performed for 30 min at 4° C. Analysis of cell-surface staining was performed using a FACScalibur flow cytometer (Becton-Dickinson, San Jose, Calif., USA).
as §1, §2

Is1-Co029 tumor cells = assay: Effect of antiCo-029 antibodies on subcutaneous tumor growth; type: in vivo, mice; conditions: 1 mg i.p. biweekly; for Tumor growth inhibition (T/C %): vs PBS control
Method: Effect of antiCo-029 antibodies on subcutaneous tumor growth. In order to realize the animal experiments, a large amounts of purified mAbs was prepared. The yield of mAb TS29.2 (IgG2b) was of approximately 5 mg purified mAb/ml ascitis. Mice produce a mean of 10 ml ascitis/mouse.
Ascitis were clarified by centrifugation and 0.45 μm filtered. The mAbs were purified by using the Biosepra MEP HyperCel* Hydrophobic Charge Induction Chromatography (HCIC) Sorbent, dialysed against PBS and the purity checked by gel electrophoresis and Coomassie Blue coloration. Fractions were aliquoted and frozen at −20° C.
The effect of the antibodies on tumor growth was evaluated by subcutaneous implantation of tumor cells issued from colon carcinoma cell lines, followed by repeated injections of monoclonal antibodies with appropriate controls.
Ten Nude mice were injected subcutaneously with 10^7 Is1-Co029 tumor cells and divided in two groups, antibody treated and PBS control. Each group received an i.p. injection of either 1 mg Ts29.2 or the same volume of PBS and biweekly subsequent injections of 1 mg Ts29.2 or PBS i.p., for a total of nine injections. The size of the tumor was determined by the formula (π/6×length×width×thickness).
Tumor growth inhibition (T/C %) was defined as the ratio of the median tumor volume for the treated vs. control group. It will be calculated as T/C %=[(median tumor volume of treated group at day X)/(median tumor volume of control group at day X)]×100.

With “si-RhoA: si-RNA to RhoA, GAACUAUGUGGCAGAUAUCdTdT (SEQ ID NO: 23), Dharmacon (listed as RNA, chemistry not fully specified) [reference compound]” the “effect on motility of Is1-Co029 cells, in words” value (Is1-Co029 cells; sparse cells on collagen I, agent alone) was “same effect on motility as p120-catenin silencing”.

In the case of “si-p120: si-RNA to p120ctn; si-p120a GCCAGAGGUGGUUCGGAUAdTdT (SEQ ID NO: 20) used throughout the study (listed as RNA, chemistry not fully specified)”, the “reduction of the amount of p120ctn” value (p120-catenin) is reported as 80% and the “reduction of surface E-cadherin” value (E-cadherin) is reported as 50%.

With “si-Co029: si-RNA to Co-029, GGUAUCCUAGGAGCUGUUUdTdT (SEQ ID NO: 10) (listed as RNA, chemistry not fully specified)” the “effect on the acceleration of Is1-Co029 cells induced by si-p120, in words” value (Is1-Co029 cells; cells silenced for p120ctn) was “reversed” and the “effect on the increased motility induced by si-Ecad, in words” value (Is1-Co029 cells; co-silencing with si-Ecad) was “suppressed”.

B1: Ts29.2: murine monoclonal antibody against Co-029 obtainable from hybridoma CNCM I-4047; VH SEQ ID NO: 1, VL SEQ ID NO: 5 (antibody, V domains shown)
VH: EVKVVESGGGLVQPGGSLRLSCATSGFTFTDYYMSWVRQPPGKALEWLGFIRNRVSGYTTEYSASVQGRFTISRDNSQSILYLQMNTLRAEDSATYYCARDHYGNFAMDYWGQGTSVTVSS
VL: DIQMTQSSSSFSVSLGDRVTITCKASEDIYNRLAWYQQKPGNAPRLLISGATSLETGVPSRFSGSGSGKDYTLSITSLQTEDVASYYCQQYWSTPFTFGSGTKLEIK
modifications: Synthetic VH; Synthetic VL
B1 was tested, and the “growth of Is1-Co029 cells (subcutaneous tumor), in words” value (Is1-Co029 tumor cells; Nude mice) was “inhibits significantly”, the “Tumor growth inhibition (T/C %)” value (Is1-Co029 tumor cells; day 43 (J43), nine injections) was 36% and the “Tumor growth inhibition (T/C %)” value (Is1-Co029 tumor cells; day 50 (J50), nine injections) was 35%. For the same molecule, the mean tumor size (Is1-Co029 tumor cells; day 50, nine injections, PBS control 557±141.6) was 195.7±47.7 mm^3.
